Source: paper PMC10425210 (The Journal of Clinical Investigation, 2023)
Like-named read-outs stand apart in the source and are kept apart here.

System: SHIV-SF162P3
Format: in vivo, rhesus macaques

CC(C)(C#Cc1ccc(-c2ccc(Cl)c3c(NS(C)(=O)=O)nn(CC(F)(F)F)c23)c([C@H](Cc2cc(F)cc(F)c2)NC(=O)Cn2nc(C(F)(F)F)c3c2C(F)(F)[C@@H]2C[C@H]32)n1)S(C)(=O)=O [LEN, Lenacapavir]
time of measurable anti-capsid (p27) antibodies (3 animals positive for SHIV by qPCR): ≤ 4 week after challenge | first detectable intact SHIV DNA (3 animals with confirmed viremia): 2 week after challenge | animals becoming infected (LEN exposure above the 70 nM target at challenge): 0 of 6 | Animal number, Infected (LEN-dosed <target (70 nM)): 3 | Animal number, Uninfected (LEN-dosed <target (70 nM)): 2 | Animal number, Infected (LEN-dosed >target (70 nM)): 0 | Animal number, Uninfected (LEN-dosed >target (70 nM)): 6 | Animal number, Infected (LEN-dosed total): 3 | Animal number, Uninfected (LEN-dosed total): 8 | Challenge outcome (animal BM55, 20 mg/kg): Infected | Intact SHIV DNA / 10M PBMC (animal BM55, 20 mg/kg, Wk 2 post challenge): 145.35 / 10M PBMC | Plasma SHIV RNA (animal BM55, 20 mg/kg, week 6 post challenge): 7809 copies per mL | Plasma SHIV RNA (animal BM55, 20 mg/kg, week 7 post challenge): 4541 copies per mL | Plasma SHIV RNA (animal BM55, 20 mg/kg, week 8 post challenge): 69 copies per mL | Plasma SHIV RNA (animal BM55, 20 mg/kg, week 9 post challenge): 62 copies per mL | Plasma SHIV RNA (animal BM55, 20 mg/kg, week 10 post challenge): 62 copies per mL | Challenge outcome (animal BN33, 20 mg/kg): Not infected | Intact SHIV DNA / 10M PBMC (animal BN33, 20 mg/kg, Wk 2 post challenge): 1 / 10M PBMC | Intact SHIV DNA / 10M PBMC (animal BN33, 20 mg/kg, Wk 10 post challenge): 1 / 10M PBMC | Plasma SHIV RNA (animal BN33, 20 mg/kg, week 6 post challenge): 62 copies per mL | Plasma SHIV RNA (animal BN33, 20 mg/kg, week 7 post challenge): 62 copies per mL | Plasma SHIV RNA (animal BN33, 20 mg/kg, week 8 post challenge): 62 copies per mL | Plasma SHIV RNA (animal BN33, 20 mg/kg, week 9 post challenge): 62 copies per mL | Plasma SHIV RNA (animal BN33, 20 mg/kg, week 10 post challenge): 62 copies per mL | Challenge outcome (animal CP67, 75 mg/kg): Not infected | Intact SHIV DNA / 10M PBMC (animal CP67, 75 mg/kg, Wk 2 post challenge): 1 / 10M PBMC | Intact SHIV DNA / 10M PBMC (animal CP67, 75 mg/kg, Wk 10 post challenge): 1 / 10M PBMC | Plasma SHIV RNA (animal CP67, 75 mg/kg, week 0 post challenge): 62 copies per mL | Plasma SHIV RNA (animal CP67, 75 mg/kg, week 1 post challenge): 62 copies per mL | Plasma SHIV RNA (animal CP67, 75 mg/kg, week 2 post challenge): 62 copies per mL | Challenge outcome (animal V229, 20 mg/kg): Infected | Intact SHIV DNA / 10M PBMC (animal V229, 20 mg/kg, Wk 2 post challenge): 398.25 / 10M PBMC | Plasma SHIV RNA (animal V229, 20 mg/kg, week 6 post challenge): 189 copies per mL | Plasma SHIV RNA (animal V229, 20 mg/kg, week 7 post challenge): 79 copies per mL | Plasma SHIV RNA (animal V229, 20 mg/kg, week 8 post challenge): 69 copies per mL | Plasma SHIV RNA (animal V229, 20 mg/kg, week 9 post challenge): 62 copies per mL | Plasma SHIV RNA (animal V229, 20 mg/kg, week 10 post challenge): 62 copies per mL | Challenge outcome (animal V411, 50 mg/kg): Not infected | Intact SHIV DNA / 10M PBMC (animal V411, 50 mg/kg, Wk 2 post challenge): 1 / 10M PBMC | Intact SHIV DNA / 10M PBMC (animal V411, 50 mg/kg, Wk 10 post challenge): 1 / 10M PBMC | Plasma SHIV RNA (animal V411, 50 mg/kg, week 0 post challenge): 62 copies per mL | Plasma SHIV RNA (animal V411, 50 mg/kg, week 1 post challenge): 62 copies per mL | Plasma SHIV RNA (animal V411, 50 mg/kg, week 2 post challenge): 62 copies per mL | Plasma SHIV RNA (animal V411, 50 mg/kg, week 3 post challenge): 62 copies per mL | Plasma SHIV RNA (animal V411, 50 mg/kg, week 4 post challenge): 62 copies per mL | Plasma SHIV RNA (animal V411, 50 mg/kg, week 5 post challenge): 62 copies per mL | Plasma SHIV RNA (animal V411, 50 mg/kg, week 6 post challenge): 62 copies per mL | Plasma SHIV RNA (animal V411, 50 mg/kg, week 7 post challenge): 62 copies per mL | Plasma SHIV RNA (animal V411, 50 mg/kg, week 8 post challenge): 62 copies per mL | Plasma SHIV RNA (animal V411, 50 mg/kg, week 9 post challenge): 62 copies per mL | Plasma SHIV RNA (animal V411, 50 mg/kg, week 10 post challenge): 62 copies per mL | Plasma SHIV RNA (animal V411, 50 mg/kg, week 11 post challenge): 62 copies per mL | Plasma SHIV RNA (animal V411, 50 mg/kg, week 12 post challenge): 62 copies per mL | Plasma SHIV RNA (animal V411, 50 mg/kg, week 13 post challenge): 62 copies per mL | Plasma SHIV RNA (animal V411, 50 mg/kg, week 14 post challenge): 62 copies per mL | Plasma SHIV RNA (animal V411, 50 mg/kg, week 15 post challenge): 62 copies per mL | Plasma SHIV RNA (animal V411, 50 mg/kg, week 16 post challenge): 62 copies per mL | Plasma SHIV RNA (animal V411, 50 mg/kg, week 17 post challenge): 62 copies per mL | Plasma SHIV RNA (animal V411, 50 mg/kg, week 18 post challenge): 62 copies per mL | Challenge outcome (animal V417, 75 mg/kg): Not infected | Intact SHIV DNA / 10M PBMC (animal V417, 75 mg/kg, Wk 2 post challenge): 1 / 10M PBMC | Intact SHIV DNA / 10M PBMC (animal V417, 75 mg/kg, Wk 10 post challenge): 1 / 10M PBMC | Plasma SHIV RNA (animal V417, 75 mg/kg, week 0 post challenge): 62 copies per mL | Plasma SHIV RNA (animal V417, 75 mg/kg, week 1 post challenge): 62 copies per mL | Plasma SHIV RNA (animal V417, 75 mg/kg, week 2 post challenge): 62 copies per mL | Challenge outcome (animal V426, 75 mg/kg): Not infected | Intact SHIV DNA / 10M PBMC (animal V426, 75 mg/kg, Wk 2 post challenge): 1 / 10M PBMC | Intact SHIV DNA / 10M PBMC (animal V426, 75 mg/kg, Wk 10 post challenge): 1 / 10M PBMC | Plasma SHIV RNA (animal V426, 75 mg/kg, week 0 post challenge): 62 copies per mL | Plasma SHIV RNA (animal V426, 75 mg/kg, week 1 post challenge): 62 copies per mL | Plasma SHIV RNA (animal V426, 75 mg/kg, week 2 post challenge): 62 copies per mL | Plasma SHIV RNA (animal V426, 75 mg/kg, week 3 post challenge): 62 copies per mL | Challenge outcome (animal V430, 50 mg/kg): Not infected
